# From ChEMBL document CHEMBL1201862, “PubChem BioAssay data set” (2004)
# Calls of active or inactive are those of the source.
# Tests used:
# [1] = viability inhibitors of stage V gametocytes – luminescence, dose response (AID 1117278); assay type: functional, cell-based;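 further: gametocytes exposed to compound for 24 hours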
# [2] = viability loss in human Jurkat cells – cell-based, luminescence, cytotoxicity control for P. falciparum gametocyte viability project, dose response (AID 1117277); assay type: functional;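 further: potency reflects loss of cellular ATP meaning fewer viable cells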
# [3] = toxicity to human hepatoma HepG2 cells – cell-based, cherry-picked samples, cytotoxicity control, dose response (AID 1159577); assay type: functional
# [4] = P. falciparum Dd2 growth inhibitors, dose response, SYBR Green, cherry-picked samples (AID 1159567); assay type: functional, cell-based
# [5] = toxicity to human HepG2 hepatoma cells – cell-based, plate reader, dry powder samples, cytotoxicity control, dose response (AID 1159569); assay type: functional;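 further: inhibitor potency with signal falling toward the positive control level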
# [6] = growth inhibition of PfATP4-mutant resistant parasites – NITD609-resistant line, SYBR Green, dry powder, dose response (AID 1159571); assay type: functional, cell-based;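 further: parasites synchronized at ring stage by sorbitol before testing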
# [7] = Dd2 malaria parasite growth inhibition potency – SYBR Green, dry powder samples, dose response (AID 1159566); assay type: functional, cell-based;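 further: potency for growth inhibition with lower SYBR green DNA signal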
# [8] = growth inhibition of yeast DHODH-expressing 3D7 parasites – SYBR Green, dry powder samples, dose response (AID 1159570); assay type: functional, cell-based;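 further: parasite growth measured after 72 hours of compound exposure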
# [9] = target: T1, Carboxy-terminal domain RNA polymerase II polypeptide A small phosphatase 1 (Homo sapiens, UniProt Q9GZU7); assay: CTDSP1 inhibitors, concentration-response, biochemical, absorbance readout, ultra-high-throughput screen actives (AID 540297); assay type: functional
# T1 sequence (Q9GZU7 whole entry): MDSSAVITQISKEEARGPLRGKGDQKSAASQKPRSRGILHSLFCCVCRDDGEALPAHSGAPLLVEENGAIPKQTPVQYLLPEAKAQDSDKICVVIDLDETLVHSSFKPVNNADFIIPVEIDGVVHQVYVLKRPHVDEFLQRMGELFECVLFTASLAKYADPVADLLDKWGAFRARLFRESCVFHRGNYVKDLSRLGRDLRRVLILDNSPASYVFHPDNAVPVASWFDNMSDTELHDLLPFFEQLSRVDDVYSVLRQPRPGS
# [10] = target: Bifunctional protein GlmU (Mycobacterium tuberculosis, UniProt P9WMN3); assay: Inhibitors of Mycobacterial Glucosamine-1-phosphate acetyl transferase (GlmU). Secondary screen.; design: species or system Mycobacterium tuberculosis H37Rv
# Streptococcus = assay: GAS UMAA2166 growth inhibition – luminescence, BacTiterGlo, counter-screen for streptokinase expression inhibitor project, dose response (AID 1915); assay type: functional, organism-based;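 further: potency for reduction of bacterial viability or growth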
# HEK293 = assay: Fluorescence-based counterscreen for potentiators or agonists of NPY-Y2: cell-based high-throughput dose response assay to identify inhibitors of cyclic nucleotide gated ion channel (CNGC) activity. In this assay, the parental HEK293 cell line transfected with a cyclic-nucleotide gated ion channel (CNGC)-based cAMP sensor is used to measure inhibition of isoproterenol-induced CNGC activity by test compound.; assay type: functional; conditions: Homo sapiens;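 further: stimulus is 1 µM isoproterenol at EC100 plus PDE inhibitor Ro 20-1724 at 25 µM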
# [11] = tested on: Streptococcus sp. 'group A'; assay: Streptococcus pyogenes SK(-)GAS viability under kanamycin – luminescence, BacTiterGlo, confirmation, counter-screen for streptokinase expression inhibitor project, dose response (AID 1900); assay type: functional, organism-based
# [12] = target: E3 ubiquitin-protein ligase Mdm2 (Homo sapiens, UniProt Q00987); assay: MDM2-luc reporter signal enhancers, multi-concentration potency testing, MDM2 ubiquitin-protein ligase inhibitor program, whole-cell format, luminescence detection, 384-well microplate (AID 1394); assay type: functional;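 further: MDM2 E3 inhibitors raise luminescence so EC50 is for signal enhancement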
# [13] = target: DNA dC->dU-editing enzyme APOBEC-3G (Homo sapiens, UniProt Q9HC16); assay: Dose Response confirmation of small molecule APOBEC3G DNA Deaminase Inhibitors via a fluorescence-based single-stranded DNA deaminase assay. [Related pubchem assays (depositor defined):AID493012, AID493028]; assay type: functional
# [14] = target: Eukaryotic translation initiation factor 4E (Mus musculus, UniProt P63073); assay: blockers of eIF4G binding by eIF4E – biochemical, TR-FRET, dose response (AID 855); assay type: functional;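 further: potency for disrupting eIF4E binding to eIF4GI seen as loss of FRET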
# [15] = target: Mannose-6-phosphate isomerase (Homo sapiens, UniProt P34949); assay: MPI inhibition at elevated mannose 6-phosphate – biochemical, fluorescence intensity, high mannose 6-phosphate, primary screen (AID 1220)
# Large T antigen = Large T antigen (Simian virus 40, UniProt P03070); assay type: functional, Betapolyomavirus macacae;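 further: Confirmatory-stage PubChem screen for compounds that inhibit SV40 T antigen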
# [16] = cytotoxicity toward HCT116 cells – cell-based, CellTiter-Glo luminescence, IC50, dose response (AID 1117332); assay type: functional; conditions: HCT-116
# [17] = HCT116 cell viability decrease, GSK3B pretreatment – CellTiter-Glo, IC50, dose response (AID 1117339); assay type: functional; conditions: HCT-116
# [18] = RKO cell viability reduction, dose response, CellTiter-Glo luminescence (AID 1117322); assay type: functional
# [19] = Reduced DLD-1 viability, concentration-response, CellTiter-Glo luminescence (AID 1117352); assay type: functional
# [20] = cytotoxicity toward Colo320 cells – cell-based, CellTiter-Glo luminescence, IC50, dose response (AID 1117334); assay type: functional; conditions: COLO 320
# [21] = CellTiter-Glo luminescence survival assay, SW480 colon tumor line, concentration-response curve, half-maximal inhibitory concentration (AID 1117338); assay type: functional
# [22] = rise of 4N DNA cells, HeLa – IC50, dose response (AID 1117351); assay type: functional, cell-based
# [23] = SNU-C1 cell viability reduction, dose response, CellTiter-Glo luminescence (AID 1117323); assay type: functional, cell-based
# [24] = rise of 2N DNA cells, HeLa – IC50, dose response (AID 1117349); assay type: functional, cell-based
# [25] = cytotoxicity toward HT-29 cells – cell-based, CellTiter-Glo luminescence, IC50, dose response (AID 1117330); assay type: functional
# Sequence of E3 ubiquitin-protein ligase Mdm2 (Q00987 whole entry): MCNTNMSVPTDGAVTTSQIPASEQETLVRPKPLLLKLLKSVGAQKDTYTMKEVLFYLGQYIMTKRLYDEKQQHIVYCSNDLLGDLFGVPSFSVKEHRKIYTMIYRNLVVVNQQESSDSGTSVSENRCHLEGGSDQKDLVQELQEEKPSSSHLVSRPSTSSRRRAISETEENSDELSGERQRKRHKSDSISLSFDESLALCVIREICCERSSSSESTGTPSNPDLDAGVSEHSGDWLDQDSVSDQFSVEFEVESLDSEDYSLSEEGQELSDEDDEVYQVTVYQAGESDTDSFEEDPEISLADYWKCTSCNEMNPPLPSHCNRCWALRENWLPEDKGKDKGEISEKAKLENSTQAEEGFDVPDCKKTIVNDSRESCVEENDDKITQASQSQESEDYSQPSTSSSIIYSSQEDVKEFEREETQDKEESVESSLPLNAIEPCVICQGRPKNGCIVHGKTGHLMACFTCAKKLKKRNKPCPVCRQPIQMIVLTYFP
# Sequence of Mannose-6-phosphate isomerase (P34949 whole entry): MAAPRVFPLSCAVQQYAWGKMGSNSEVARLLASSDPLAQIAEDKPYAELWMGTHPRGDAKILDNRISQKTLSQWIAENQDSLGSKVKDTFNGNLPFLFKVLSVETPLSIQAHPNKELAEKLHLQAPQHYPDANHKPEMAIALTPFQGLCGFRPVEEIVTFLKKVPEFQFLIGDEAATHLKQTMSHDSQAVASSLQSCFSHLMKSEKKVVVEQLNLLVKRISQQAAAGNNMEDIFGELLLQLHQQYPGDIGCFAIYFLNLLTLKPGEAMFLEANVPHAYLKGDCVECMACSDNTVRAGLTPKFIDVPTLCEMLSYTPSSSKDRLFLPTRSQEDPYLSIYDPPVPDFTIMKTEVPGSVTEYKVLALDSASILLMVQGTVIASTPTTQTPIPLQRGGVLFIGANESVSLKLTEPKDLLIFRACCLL
# Sequence of Large T antigen (P03070 whole entry): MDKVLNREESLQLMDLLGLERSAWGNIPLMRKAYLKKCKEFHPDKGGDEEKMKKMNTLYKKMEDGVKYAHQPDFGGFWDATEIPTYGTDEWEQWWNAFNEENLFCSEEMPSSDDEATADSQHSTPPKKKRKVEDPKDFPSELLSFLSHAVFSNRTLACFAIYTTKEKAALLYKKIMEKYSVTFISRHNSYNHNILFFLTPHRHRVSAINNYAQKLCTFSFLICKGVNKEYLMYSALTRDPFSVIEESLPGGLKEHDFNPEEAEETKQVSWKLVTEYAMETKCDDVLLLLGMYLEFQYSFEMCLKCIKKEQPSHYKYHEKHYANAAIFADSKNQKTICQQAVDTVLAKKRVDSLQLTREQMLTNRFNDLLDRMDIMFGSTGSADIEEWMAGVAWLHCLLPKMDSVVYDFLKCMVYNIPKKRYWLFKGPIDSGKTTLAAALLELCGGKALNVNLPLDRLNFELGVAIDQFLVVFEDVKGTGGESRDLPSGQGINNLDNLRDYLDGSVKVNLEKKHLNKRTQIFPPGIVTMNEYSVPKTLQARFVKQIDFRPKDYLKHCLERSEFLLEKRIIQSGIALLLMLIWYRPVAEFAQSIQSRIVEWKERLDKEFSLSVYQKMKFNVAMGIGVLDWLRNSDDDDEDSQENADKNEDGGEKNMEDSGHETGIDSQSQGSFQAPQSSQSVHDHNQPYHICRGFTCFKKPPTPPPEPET
# Sequence of Bifunctional protein GlmU (P9WMN3 whole entry): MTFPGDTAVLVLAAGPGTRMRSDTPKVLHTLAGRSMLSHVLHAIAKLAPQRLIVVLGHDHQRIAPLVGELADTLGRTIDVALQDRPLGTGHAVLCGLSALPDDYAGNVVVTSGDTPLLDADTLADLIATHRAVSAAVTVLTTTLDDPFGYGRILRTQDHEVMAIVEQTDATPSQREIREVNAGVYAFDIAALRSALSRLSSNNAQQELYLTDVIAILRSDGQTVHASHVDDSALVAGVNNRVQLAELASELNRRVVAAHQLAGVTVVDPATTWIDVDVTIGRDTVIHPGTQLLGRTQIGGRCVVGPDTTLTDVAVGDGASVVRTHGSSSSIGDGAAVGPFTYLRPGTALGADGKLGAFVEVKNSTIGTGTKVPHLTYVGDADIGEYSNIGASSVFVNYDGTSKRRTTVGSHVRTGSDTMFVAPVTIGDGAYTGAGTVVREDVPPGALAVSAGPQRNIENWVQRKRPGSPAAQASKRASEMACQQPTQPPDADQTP
# Sequence of DNA dC->dU-editing enzyme APOBEC-3G (Q9HC16 whole entry): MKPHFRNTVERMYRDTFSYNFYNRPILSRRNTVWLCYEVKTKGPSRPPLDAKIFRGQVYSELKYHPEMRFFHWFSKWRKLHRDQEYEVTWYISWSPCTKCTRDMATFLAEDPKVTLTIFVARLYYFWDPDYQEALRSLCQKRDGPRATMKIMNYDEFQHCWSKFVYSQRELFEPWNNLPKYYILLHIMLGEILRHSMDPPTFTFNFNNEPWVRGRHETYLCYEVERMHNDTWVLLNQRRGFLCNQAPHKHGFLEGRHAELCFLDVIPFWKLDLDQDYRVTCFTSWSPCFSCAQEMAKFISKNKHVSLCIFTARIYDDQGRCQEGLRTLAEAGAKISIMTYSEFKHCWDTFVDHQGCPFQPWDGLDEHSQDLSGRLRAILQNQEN
# Sequence of Eukaryotic translation initiation factor 4E (P63073 whole entry): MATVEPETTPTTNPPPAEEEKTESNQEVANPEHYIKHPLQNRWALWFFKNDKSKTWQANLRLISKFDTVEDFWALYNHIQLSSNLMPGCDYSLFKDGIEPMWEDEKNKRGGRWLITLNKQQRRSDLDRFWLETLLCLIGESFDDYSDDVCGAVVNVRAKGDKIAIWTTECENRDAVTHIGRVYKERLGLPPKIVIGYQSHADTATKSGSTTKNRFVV
structure (smiles),measurement,setting,value
Cn1c(CCNC(=O)C2CCCCC2)nc2cc(NC(=O)c3cccs3)ccc21,IC50,[1],> 109 µM (inactive)
same,IC50,[2],> 83.3 µM (inactive)
O=C(c1ccc2c(c1)OCO2)N1CC(=O)N2[C@H](CO)[C@H](c3ccc(C#Cc4ccccc4)cc3)[C@H]2C1,AC50,[3],26.3 µM (active)
same,AC50,[4],2.52 µM (active)
same,AC50,[5],25 µM (active)
same,AC50,[6],1.93 µM (active)
same,AC50,[7],1.68 µM (active)
same,AC50,[8],5.73 µM (active)
CC1C=CC(C)C(C(=O)O)C1C(=O)O (stereo unspecified),IC50,[9],4.36 µM (active)
same,IC50,[10],144 µM (active)
O=[N+]([O-])c1cc(C(F)(F)F)cc([N+](=O)[O-])c1NCCN=C(S)Nc1ccc(Cl)c(Cl)c1,EC50,Streptococcus,6.5 µM (active)
same,EC50,HEK293,7.47 µM (active)
same,EC50,[11],4.03 µM (active)
CCOC(=O)Cn1nnnc1C,EC50,[12],827 µM (not active)
CC(C)(O)C1Cc2cc(/C=C/C(=O)O)c(O)cc2O1 (stereo unspecified),IC50,[13],38.2 µM (active)
same,IC50,[14],30.4 µM (active)
same,IC50,[15],8.63 µM (active)
same,IC50,Large T antigen,38.3 µM (active)
Cc1ccc(S(=O)(=O)N2CCN(C(=O)CC(C)C)CC2)cc1,EC50,[12],7.17 µM (not active)
COc1ccc(-n2c(-c3ccco3)nc3c(cnn3-c3ccccc3C)c2=O)cc1,IC50,[1],> 109 µM (inactive)
same,IC50,[2],> 83.3 µM (inactive)
O=C(O)c1ccc(-n2nc(-c3ccccc3O)nc2-c2ccccc2O)cc1 [DEFERASIROX],IC50,[16],0.438 µM (active)
same,IC50,[17],0.242 µM (active)
same,IC50,[18],0.1 µM (active)
same,IC50,[19],0.651 µM (active)
same,IC50,[20],0.409 µM (active)
same,IC50,[21],0.0776 µM (active)
same,IC50,[22],> 10 µM (inactive)
same,IC50,[23],0.233 µM (active)
same,IC50,[24],> 10 µM (inactive)
same,IC50,[25],0.516 µM (active)
